Measured values published in patent publication US20230312476A1, “COMPOUNDS WITH SEMIOCHEMICAL PROPERTIES AND BIOSENSORS” (ROTHAMSTED RESEARCH LIMITED, priority 2020, published 2023).
Read-outs that look alike come from different tables or passages of the source.

Columns and labels:
OBP6 [1] = target: T1, OBP6 (Acyrthosiphon pisum, UniProt A0A8R1TDN2); assay: 1-NPN fluorescence competitive binding assay, OBP6
Procedure: (§1) All fluorescent measurements were undertaken using a Perkin-Elmer LS50B fluorescence spectrophotometer, using a 2 mL quartz cuvette, and the settings described below in Table 13, unless otherwise stated. Spectra were recorded using FL WinLab software.
(§2) Saturation of OBPs with fluorescent probe and 1-NPN (Sigma-Aldrich) was initially measured by titrating a 2 μM protein sample (2 mL in 25 mM Tris-HCl) with aliquots of 1 mM ligand (Sigma-Aldrich) in methanol to final concentrations of 1-16 μM. The fluorescence intensity at […] was recorded.
(§3) The competitive binding of ligands was measured by observing the intrinsic fluorescence of tryptophan. Titrations were performed with aliquots of 1 mM ligand in methanol to final concentrations of 1-20 μM, either after the addition of fluorescent probe to a final concentration of 1 μM or in the absence of fluorescent probe.
(§4) To generate KD values, relative fluorescence intensity was plotted against the concentration of ligand as a binding curve. KD values were generated in GraphPad Prism 7 using a non-linear regression and the inbuilt equation: […]

OBP9 = OBP9 (Acyrthosiphon pisum, UniProt A0A8R1TD77); assay: 1-NPN fluorescence competitive binding assay, OBP9
Procedure: as §1, §2, §3, §4

OBP6 [2] = target: T1, OBP6; assay: Fluorescent probe-free (intrinsic tryptophan fluorescence) binding assay, OBP6
Procedure: as §1, §3, §4

[3] = OBP9 with 1-NPN fluorescent probe, non-linear regression, ± error, read-out: OBP9 1-NPN Assay KD
[4] = OBP6, absence of fluorescent probe, non-linear regression, ± error, read-out: OBP6 Fluorescent Probe-Free Assay KD
[5] = OBP6 with 1-NPN fluorescent probe, non-linear regression, ± error, read-out: OBP6 1-NPN Assay KD

T1 sequence (A0A8R1TDN2 1-160): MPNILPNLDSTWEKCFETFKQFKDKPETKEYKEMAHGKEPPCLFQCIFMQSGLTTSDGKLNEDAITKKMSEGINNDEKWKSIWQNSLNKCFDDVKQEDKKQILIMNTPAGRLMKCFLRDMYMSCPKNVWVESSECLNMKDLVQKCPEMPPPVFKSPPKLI
Sequence of OBP9 (A0A8R1TD77 1-165): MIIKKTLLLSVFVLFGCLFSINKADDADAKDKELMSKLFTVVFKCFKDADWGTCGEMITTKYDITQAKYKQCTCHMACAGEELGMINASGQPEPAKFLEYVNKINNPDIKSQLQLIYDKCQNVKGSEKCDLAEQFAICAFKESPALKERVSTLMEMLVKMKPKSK

SMILES | Kd (OBP6 [1]) | Kd (OBP9; [3]) | Kd (OBP6 [2]; [4]) | Kd (OBP6 [1]; [5]) | Kd (OBP9) | Kd (OBP6 [2])
C=CC(C)(O)CCC=C(C)C (racemic) [(R/S)-linalool] | 8.95 ± 3.71 µM |  |  |  |  | 
C=CC(=C)CC/C=C(\C)CCC=C(C)C [(E)-β-farnesene] |  | 8.32 ± 2.67 µM | 34.5 ± 10.9 µM | 10.1 ± 2.88 µM |  | 
CC1=CO[C@@H](O)[C@H]2[C@@H]1CC[C@@H]2C [Compound A, (1R,4aS,7S,7aR)-4,7-dimethyl-1,4a,5,6,7,7a-hexahydrocyclopenta[c]pyran-1-ol] |  | 5.74 ± 1.71 µM | 12.7 ± 2.31 µM | 2.62 ± 0.63 µM |  | 
CC1=COC(=O)[C@H]2[C@@H]1CC[C@@H]2C [Compound B, (4aS,7S,7aR)-4,7-dimethyl-5,6,7,7a-tetrahydrocyclopenta[c]pyran-1(4aH)-one] |  | 6.49 ± 1.58 µM | 1.9 ± 0.35 µM | 1.3 ± 0.6 µM |  | 
CC1=CO[C@H](O)[C@H]2[C@H](C)CC[C@@H]12 [Compound C, (1S,4aR,7R,7aS)-4,7-dimethyl-1,4a,5,6,7,7a-hexahydrocyclopenta[c]pyran-1-ol] |  | 6.29 ± 1.99 µM | 8.46 ± 1.62 µM | 2.65 ± 0.8 µM |  | 
CC1=COC(=O)[C@H]2[C@H](C)CC[C@@H]12 [Compound D, (4aR,7R,7aS)-4,7-dimethyl-5,6,7,7a-tetrahydrocyclopenta[c]pyran-1(4aH)-one] | 4.37 ± 0.81 µM |  |  |  | 9.68 ± 4.57 µM | 12 ± 4.24 µM
